Each structure is given as a SMILES string.

In the assay the test system is Mythimna separata. Kind of assay: Screening of insecticidal activity against Mythimna separata, leaf soaking method (IRAC). The class given is in vivo. The settings on record: concentration 500 μg/mL; 3rd instar larvae on soaked corn leaves; investigated after 48 h; 24-27° C. The protocol:
Screening of Insecticidal Activity of Compounds Against Mythimna separate
Adopting the leaf soaking method proposed by the International Resistance Action Committee (IRAC): the test target is Mythimna separata, e.g. the appropriate amount of corn leaves was fully infiltrated in the prepared liquid and then dried naturally in the shade, and placed in a petri dish with a filter paper. The 3rd instar larvas of Mythimna separata were added 10 heads per dish, cultured in the observation room at 24-27° C., and the results were investigated after 48 h. Using a brush to touch the body of the Mythimna separata, if there is no response, it is regarded as a dead insect. The test concentration is 500 μg/mL (the other concentrations of the drug solution can be obtained by diluting the drug solution with the concentration of 500 μg/mL).
Consider `O=[N+]([O-])/N=C1\NCCN1Cc1ccc(Oc2ccc(F)cc2)nc1` [I a], for which the “death rate % Mythimna separata” value came to 100%.
The same measure for `O=[N+]([O-])/N=C1\NCCN1Cc1ccc(Oc2ccc(Cl)cc2)nc1` [I b]: 100%; for `O=[N+]([O-])/N=C1\NCCN1Cc1ccc(Oc2cccc(F)c2F)nc1` [I f]: 100%; for `O=[N+]([O-])/N=C1\NCCN1Cc1ccc(Oc2ccccc2)nc1` [I d]: 100%.
`O=[N+]([O-])/N=C1\NCCN1Cc1ccc(Oc2ccc(Br)cc2)nc1` [I c]: the “death rate % Mythimna separata” value came to 80%.
As to `O=[N+]([O-])/N=C1\NCCN1Cc1ccc(Oc2ccc(Cl)cc2Cl)nc1` [I e], the “death rate % Mythimna separata” value is on record as 100%.

(Values after patent US12466806B2, “2-substituted imidazolidine derivative containing aryl bipyridyloxy structure and preparation method and use thereof” (NANTONG UNIVERSITY, priority 2020, dated 2025).)
